≈ marks a conversion by molar mass, not a printed value. Calls of active or inactive are those of the source.

One test concerns Saccharomyces cerevisiae. In words: Antimicrobial activity against yeast Sc7. Type of test: functional.
The test system of a further test is M109. Nature of the test: Cytotoxicity against mouse M109 cells. It counts as functional, cell-based.
The next test relates to Candida tropicalis. In words: Antimicrobial activity against Candida tropicalis. Type of test: functional.
Test [1] has as its system Meyerozyma guilliermondii. Nature of the test: Antimicrobial activity against sCandida guilliermondii. It counts as functional.
The next test relates to KB. In words: Cytotoxicity against human KB cells. Type of test: functional. As to conditions: read-out: ED50 (the source's name).

`C=C1CC[C@H]2C(C)(C)CCC[C@]2(C)[C@H]1C/C=C(/C=O)CC(=O)O` had an IC12 with Saccharomyces cerevisiae of 200 µg/mL. The outcome in the test with M109 was inactive.
For `C=C1CC[C@H]2C(C)(C)CCC[C@]2(C)[C@H]1C/C=C(/C=O)CC=O`, in the test with Saccharomyces cerevisiae, the IC12 worked out at 46 µg/mL. In addition, the outcome with M109 was inactive. Besides, the MIC (in the test on Candida tropicalis; in test [1]) was 6.25 µg/mL (≈ 20.7 µM) throughout. Also, the EC50 with KB was 40 µg/mL (≈ 132 µM).
With `C=C1CC[C@H]2C(C)(C)CCC[C@]2(C)[C@H]1[C@@H]1C=C(C=O)C[C@H](O)O1`, the IC12 in the test with Saccharomyces cerevisiae is 3 µg/mL. Further, in the test on M109, the IC50 is 2.6 µg/mL (≈ 8.16 µM).

As a reminder, the MIC is the smallest concentration in the dilution series that meets the test's criterion for growth inhibition. A low value points to a more susceptible organism. The term IC50 denotes the point on the concentration scale where inhibition reaches its midpoint. The low end stands for greater potency in that assay, the high end for weaker potency in that assay.

For the origin of these results see ChEMBL document CHEMBL1158866, “Bioactive labdane diterpenoids from Renealmia alpinia collected in the Suriname rainforest” (J Nat Prod, 1997).
